According to patent US8927587B2, “Chemical compounds” (Pfizer Limited, priority 2012, dated 2015):

Target: T1, hNav1.8 (Homo sapiens, UniProt Q9Y5Y9)
T1 construct: host or cells: HEK cells, stably transfected
Test: hNav1.8 whole-cell patch-clamp electrophysiology (conventional or PatchXpress 7000) in stably transfected HEK cells
Type: cell-based
Settings: estimated IC50 calculated from single point % inhibition; HEK cells expressing hNav1.8; 8 sec prepulse to V1/2, 20 msec step to 0 mV; average of replicates; read-out: Nav1.8 EIC50
Summary of the method: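 Whole-cell voltage clamp at 22-24 °C in HEK cells stably expressing hNav1.8, manually or on PatchXpress. Current evoked by 20 msec step to 0 mV after 8 s prepulse to each cell's inactivation V1/2; single-concentration % inhibition converted to estimated IC50, using only 20-80% inhibition values, averaged over replicates.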

T1 sequence (Q9Y5Y9 whole entry): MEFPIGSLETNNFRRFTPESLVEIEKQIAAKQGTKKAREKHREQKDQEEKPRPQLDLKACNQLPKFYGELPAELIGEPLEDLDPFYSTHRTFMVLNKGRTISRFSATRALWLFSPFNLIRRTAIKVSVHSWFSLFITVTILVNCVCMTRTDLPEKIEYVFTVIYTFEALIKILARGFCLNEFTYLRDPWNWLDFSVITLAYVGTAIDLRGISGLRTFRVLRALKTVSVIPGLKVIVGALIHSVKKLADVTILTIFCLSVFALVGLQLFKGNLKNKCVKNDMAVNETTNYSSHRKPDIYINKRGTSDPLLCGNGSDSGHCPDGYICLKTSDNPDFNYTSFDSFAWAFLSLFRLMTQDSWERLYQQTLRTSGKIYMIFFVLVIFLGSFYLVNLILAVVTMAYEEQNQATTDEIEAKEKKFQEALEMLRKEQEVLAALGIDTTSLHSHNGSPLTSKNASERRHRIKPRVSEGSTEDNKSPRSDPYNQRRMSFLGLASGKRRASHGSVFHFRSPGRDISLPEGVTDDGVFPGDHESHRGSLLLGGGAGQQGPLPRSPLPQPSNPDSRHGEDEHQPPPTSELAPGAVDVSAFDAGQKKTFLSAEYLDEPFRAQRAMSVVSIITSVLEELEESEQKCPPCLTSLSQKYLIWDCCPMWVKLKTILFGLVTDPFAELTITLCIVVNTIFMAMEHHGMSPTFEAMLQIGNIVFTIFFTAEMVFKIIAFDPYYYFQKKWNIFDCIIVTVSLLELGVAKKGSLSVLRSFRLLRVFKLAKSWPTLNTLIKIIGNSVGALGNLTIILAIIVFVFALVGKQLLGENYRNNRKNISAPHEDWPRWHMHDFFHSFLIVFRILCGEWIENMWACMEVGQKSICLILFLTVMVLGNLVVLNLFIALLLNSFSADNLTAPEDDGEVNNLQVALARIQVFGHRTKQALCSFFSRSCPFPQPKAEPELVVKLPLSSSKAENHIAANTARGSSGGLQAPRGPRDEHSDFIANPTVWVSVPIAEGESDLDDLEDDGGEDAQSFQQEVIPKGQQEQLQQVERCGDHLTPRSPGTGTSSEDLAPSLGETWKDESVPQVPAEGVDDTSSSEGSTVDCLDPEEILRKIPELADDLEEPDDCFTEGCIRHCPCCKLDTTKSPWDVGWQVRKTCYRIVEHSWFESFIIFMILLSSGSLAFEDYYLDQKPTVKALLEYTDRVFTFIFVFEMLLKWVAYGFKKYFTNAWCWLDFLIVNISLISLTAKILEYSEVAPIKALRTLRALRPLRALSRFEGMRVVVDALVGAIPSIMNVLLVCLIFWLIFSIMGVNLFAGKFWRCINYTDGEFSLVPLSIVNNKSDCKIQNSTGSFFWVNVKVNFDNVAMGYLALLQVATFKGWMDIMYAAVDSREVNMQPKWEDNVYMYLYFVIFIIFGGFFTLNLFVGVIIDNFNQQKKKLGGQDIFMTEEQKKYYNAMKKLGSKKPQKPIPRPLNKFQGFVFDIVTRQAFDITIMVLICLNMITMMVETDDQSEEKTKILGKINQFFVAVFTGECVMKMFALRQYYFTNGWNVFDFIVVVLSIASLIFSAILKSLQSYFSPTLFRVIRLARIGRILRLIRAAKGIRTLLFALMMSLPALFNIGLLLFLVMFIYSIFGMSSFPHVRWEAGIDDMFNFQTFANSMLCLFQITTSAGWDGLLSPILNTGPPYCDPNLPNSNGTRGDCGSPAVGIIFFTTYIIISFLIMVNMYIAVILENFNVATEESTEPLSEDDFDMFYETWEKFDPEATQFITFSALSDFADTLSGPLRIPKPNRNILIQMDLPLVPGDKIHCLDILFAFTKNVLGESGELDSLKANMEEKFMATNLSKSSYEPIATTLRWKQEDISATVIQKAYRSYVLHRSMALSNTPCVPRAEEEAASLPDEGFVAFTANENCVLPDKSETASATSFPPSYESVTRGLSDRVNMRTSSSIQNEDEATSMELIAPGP

SMILES	IC50 [nM]
CCC(C)(C)c1ccc2[nH]c([C@@H](N)[C@@H](C)OC)nc2c1 [Example 38, (1R,2R)-2-Methoxy-1-[5-(2-methylbutan-2-yl)-1H-benzimidazol-2-yl]propan-1-amine]	41.9
NC(=O)C[C@H](N)c1nc2cc(C34CC5CC(CC(C5)C3)C4)ccc2[nH]1 [Example 152, (3S)-3-Amino-3-[5-(tricyclo[3.3.1.1^3,7]dec-1-yl)-1H-benzimidazol-2-yl]propanamide]	101
C[C@@H](O)[C@H](N)c1nc2c(F)c(-c3ccc(C#N)cc3)ccc2[nH]1 [Example 98, 4-{2-[(1R,2R)-1-Amino-2-hydroxypropyl]-4-fluoro-1H-benzimidazol-5-yl}benzonitrile]	1350
CC(C)(C)Cc1ccc2[nH]c([C@@H](N)CC(N)=O)nc2c1 [Example 118, (3S)-3-Amino-3-[5-(2,2-dimethylpropyl)-1H-benzimidazol-2-yl]propanamide]	348
CC(C)(C)c1ccc2[nH]c(C3(N)CCC3)nc2c1 [Example 4, 1-(5-tert-Butyl-1H-benzimidazol-2-yl)cyclobutanamine]	447
C[C@@H](O)[C@H](N)c1cn2cc(-c3ccc(C#N)cc3)ccc2n1 [Example 154, 4-{2-[(1R,2R)-1-Amino-2-hydroxypropyl]imidazo[1,2-a]pyridin-6-yl}benzonitrile]	108
CO[C@H](C)[C@H](N)c1nc2cc(-c3cc(F)c(C#N)c(F)c3)ccc2[nH]1 [Example 87, 4-{2-[(1R,2R)-1-Amino-2-methoxypropyl]-1H-benzimidazol-5-yl}-2,6-difluorobenzonitrile]	1330
CCC(C)(C)c1ccc2[nH]c([C@H]3NCC[C@@H]3O)nc2c1 [Example 37, (2R,3S)-2-[5-(2-Methylbutan-2-yl)-1H-benzimidazol-2-yl]pyrrolidin-3-ol]	650
C[C@H](OC(N)=O)[C@H](N)c1nc2cc(C(C)(C)C)ccc2[nH]1 [Example 106, (1R,2S)-1-Amino-1-(5-tert-butyl-1H-benzimidazol-2-yl)propan-2-yl carbamate]	35
C[C@H](O)[C@@H](N)c1nc2cc(C(C)(C)C)ccc2[nH]1 [Example 16, (1S,2S)-1-Amino-1-(5-tert-butyl-1H-benzimidazol-2-yl)propan-2-ol]	2510
CO[C@H](C)[C@H](N)c1nc2cc(C(C)(C)C)ccc2[nH]1 [Example 21, (1R,2R)-1-(5-tert-Butyl-1H-benzimidazol-2-yl)-2-methoxypropan-1-amine]	32.6
C[C@@H](O)[C@H](N)c1nc2cc(-c3ccc(C#N)c(C#N)c3)ccc2[nH]1 [Example 88, 4-{2-[(1R,2R)-1-Amino-2-hydroxypropyl]-1H-benzimidazol-5-yl}benzene-1,2-dicarbonitrile]	993
